67 compounds from patent publication US8916565B2, “Pyrrolopyrazine-spirocyclic piperidine amides as modulators of ion channels” (priority 2011, dated 2014) can be followed below.

pIC50: −log10 of the molar value. Some results are limits rather than exact numbers.

The target of the assay is human NaV subtype, like NaV 1.7 (Homo sapiens, UniProt Q15858). Briefly: E-VIPR optical membrane potential assay with electrical stimulation. It is filed as cell-based. The note with it: active against one or more sodium channels; Table 3 does not name the assay or NaV subtype; read-out: Binned Activity Data (IC50).
Chain of human NaV subtype, like NaV 1.7 (Q15858 whole entry): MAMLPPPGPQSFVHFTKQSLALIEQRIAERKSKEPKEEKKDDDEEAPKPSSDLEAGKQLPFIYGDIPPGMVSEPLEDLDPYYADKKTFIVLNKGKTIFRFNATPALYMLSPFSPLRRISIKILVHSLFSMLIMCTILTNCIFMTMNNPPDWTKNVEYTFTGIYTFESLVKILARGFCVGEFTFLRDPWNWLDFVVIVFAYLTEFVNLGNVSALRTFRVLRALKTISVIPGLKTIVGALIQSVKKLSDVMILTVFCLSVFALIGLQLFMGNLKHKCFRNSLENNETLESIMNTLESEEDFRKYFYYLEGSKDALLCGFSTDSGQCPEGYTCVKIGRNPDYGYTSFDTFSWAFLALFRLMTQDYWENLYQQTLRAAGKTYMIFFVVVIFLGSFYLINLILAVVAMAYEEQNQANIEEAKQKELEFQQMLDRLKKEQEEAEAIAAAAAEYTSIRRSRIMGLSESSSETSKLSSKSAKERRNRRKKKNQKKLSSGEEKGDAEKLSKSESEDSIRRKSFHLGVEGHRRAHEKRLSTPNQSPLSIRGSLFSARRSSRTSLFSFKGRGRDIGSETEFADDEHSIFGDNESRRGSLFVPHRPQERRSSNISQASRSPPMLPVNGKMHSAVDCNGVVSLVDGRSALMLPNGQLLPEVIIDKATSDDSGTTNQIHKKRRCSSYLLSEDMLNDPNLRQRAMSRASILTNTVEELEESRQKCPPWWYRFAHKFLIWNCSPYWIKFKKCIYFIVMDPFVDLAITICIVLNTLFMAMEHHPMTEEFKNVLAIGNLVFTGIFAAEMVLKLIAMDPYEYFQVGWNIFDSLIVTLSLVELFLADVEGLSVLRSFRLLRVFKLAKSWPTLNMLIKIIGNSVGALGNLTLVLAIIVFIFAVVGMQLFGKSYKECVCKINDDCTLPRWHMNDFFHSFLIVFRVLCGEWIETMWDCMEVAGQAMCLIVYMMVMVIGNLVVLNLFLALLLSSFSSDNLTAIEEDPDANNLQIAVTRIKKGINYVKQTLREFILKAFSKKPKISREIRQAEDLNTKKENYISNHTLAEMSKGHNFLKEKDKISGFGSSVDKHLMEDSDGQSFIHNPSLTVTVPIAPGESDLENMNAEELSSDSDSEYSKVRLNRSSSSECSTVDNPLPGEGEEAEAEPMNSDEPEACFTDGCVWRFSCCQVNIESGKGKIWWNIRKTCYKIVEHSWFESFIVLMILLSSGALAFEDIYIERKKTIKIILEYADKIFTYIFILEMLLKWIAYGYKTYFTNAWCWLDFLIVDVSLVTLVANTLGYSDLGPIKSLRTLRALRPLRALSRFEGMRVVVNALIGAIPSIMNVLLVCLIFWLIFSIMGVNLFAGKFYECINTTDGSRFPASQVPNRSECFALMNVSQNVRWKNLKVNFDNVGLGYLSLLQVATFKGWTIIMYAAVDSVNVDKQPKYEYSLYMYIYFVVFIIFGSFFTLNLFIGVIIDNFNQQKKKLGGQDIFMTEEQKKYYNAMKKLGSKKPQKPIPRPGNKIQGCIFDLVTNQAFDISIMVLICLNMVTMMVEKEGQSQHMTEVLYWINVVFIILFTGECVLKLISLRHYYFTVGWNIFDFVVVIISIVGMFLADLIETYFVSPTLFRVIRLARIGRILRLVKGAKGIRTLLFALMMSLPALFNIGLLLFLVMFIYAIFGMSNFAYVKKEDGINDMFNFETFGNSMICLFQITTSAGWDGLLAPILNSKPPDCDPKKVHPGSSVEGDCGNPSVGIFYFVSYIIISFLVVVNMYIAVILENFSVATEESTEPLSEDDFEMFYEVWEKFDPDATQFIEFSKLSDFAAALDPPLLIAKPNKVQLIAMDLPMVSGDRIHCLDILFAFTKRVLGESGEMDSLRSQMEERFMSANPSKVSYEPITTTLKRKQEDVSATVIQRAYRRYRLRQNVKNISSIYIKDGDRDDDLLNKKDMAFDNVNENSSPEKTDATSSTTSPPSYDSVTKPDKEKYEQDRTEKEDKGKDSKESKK
For `COCCN1CCn2c(C(F)(F)F)ccc2C12CCN(C(=O)c1ccc(OC(C)C)c(OC)c1)CC2` [Compound 186], the pIC50 (as a rule, the negative decadic logarithm of the IC50, by convention in mol/L) was no less than 5.70.

Consider `COCCOc1ccc(C(=O)N2CCC3(CC2)c2c(F)cc(C(F)(F)F)n2CCN3C)cc1OC` [Compound 187], for which the pIC50 was no less than 5.70.

Turning to `COc1cc(C(=O)N2CCC3(CC2)c2c(F)cc(C(F)(F)F)n2CCN3C)ccc1OCC(C)C` [Compound 188], the pIC50 is no less than 5.70.

In the case of `CCCCc1ccc(C(=O)N2CCC3(CC2)c2ccc(C(C)=O)n2CCN3C)cc1` [Compound 189], the pIC50 was no less than 5.70.

In the case of `CCCOc1ccc(C(=O)N2CCC3(CC2)c2ccc(C(F)(F)F)n2CCN3C)cc1OC` [Compound 190], the pIC50 is no less than 5.70.

With `Cc1cc(C(=O)N2CCC3(CC2)c2ccc(C(=O)C(F)(F)F)n2CCN3C)ccc1-c1cncnc1` [Compound 191], the negative logarithm of the IC50 (pIC50) is no less than 5.70.

Turning to `CCNS(=O)(=O)c1ccc(C(=O)N2CCC3(CC2)c2ccc(C(C)=O)n2CCN3C)cc1` [Compound 192], the negative logarithm of the IC50 (pIC50) is less than 5.30.

On to `CN1CCn2c(C(F)(F)F)cc(F)c2C12CCN(C(=O)c1ccc(C(C)(C)O)cc1)CC2` [Compound 193], for which the pIC50 is no less than 5.70.

Turning to `CNS(=O)(=O)c1ccc(C(=O)N2CCC3(CC2)c2ccc(C(=O)C(F)(F)F)n2CCN3C)cc1C` [Compound 194], the pIC50 is no less than 5.70.

Consider `CN1CCn2c(Cl)ccc2C12CCN(C(=O)c1ccc(N3CCCCC3)cc1)CC2` [Compound 195], for which the negative logarithm of the IC50 (pIC50) is less than 5.30.

Turning to `CN1CCn2c(C(F)(F)F)ccc2C12CCN(C(=O)c1ccc(OC(C)(C)C)cn1)CC2` [Compound 196], the negative-log IC50 (pIC50) is less than 5.30.

In the case of `CC1(C)Cn2c(C(=O)C(F)(F)F)ccc2C2(CCN(C(=O)c3ccc(S(=O)(=O)C4CC4)cc3)CC2)N1` [Compound 197], the pIC50 is no less than 5.70.

For `Cc1nc(C(=O)N2CCC3(CC2)NCC(C)n2c(C(=O)C(F)(F)F)ccc23)ccc1OC(C)C` (stereo not shown) [Compound 198], the negative-log IC50 (pIC50) was no less than 5.70.

Take `Cc1cc(C(=O)N2CCC3(CC2)c2ccc(C(=O)C(C)(C)C)n2CCN3C)ccc1OC(C)C` [Compound 199]: the negative logarithm of the IC50 (pIC50) was no less than 5.70.

In the case of `Cc1nc(C(=O)N2CCC3(CC2)c2ccc(C(F)(F)F)n2CCN3C)ccc1OC(C)C` [Compound 200], the pIC50 is no less than 5.70.

For the compound `Cc1cc(C(=O)N2CCC3(CC2)c2ccc(C(=O)C(F)(F)F)n2CCN3C)ccc1O` [Compound 201], the pIC50 was no less than 5.70.

In the case of `CC(C)Oc1ccc(C(=O)N2CC[C@]3(c4ccc(C(F)(F)F)n4CCN3C)[C@H](F)C2)cc1CO` [Compound 202], the pIC50 is 5.30 to 5.70.

Turning to `CCCCOc1ccc(C(=O)N2CCC3(CC2)c2ccc(C(F)(F)F)n2CCN3C)cc1OC` [Compound 203], the negative logarithm of the IC50 (pIC50) is no less than 5.70.

For `COc1ccc(C(=O)N2CCC3(CC2)NC(C)(C)Cn2c(C(C)=O)ccc23)cc1Cl` [Compound 204], the negative logarithm of the IC50 (pIC50) is less than 5.30.

Regarding `COc1ccc(C(=O)N2CCC3(CC2)c2ccc(C(C)=O)n2CCN3C)cc1-c1ccccc1` [Compound 205], the pIC50 is less than 5.30.

As to `Cc1nc(C(=O)N2CCC3(CC2)c2c(F)cc(C(F)(F)F)n2CCN3C)ccc1OC(C)C` [Compound 206], the negative logarithm of the IC50 (pIC50) is no less than 5.70.

On to `Cc1cc(C(=O)N2CCC3(CC2)c2ccc(C(=O)C(F)(F)F)n2C[C@H](C)N3C)ccc1O` [Compound 207], for which the negative-log IC50 (pIC50) is no less than 5.70.

For the compound `CC1(C)Cn2c(C(=O)C(F)(F)F)ccc2C2(CCN(C(=O)c3ccc(S(=O)(=O)C(C)(C)C)cc3)CC2)N1` [Compound 208], the negative-log IC50 (pIC50) is no less than 5.70.

Consider `COc1cc(C(=O)N2CCC3(CC2)c2ccc(Cl)n2CCN3C)ccc1C(C)(C)C` [Compound 209], for which the negative logarithm of the IC50 (pIC50) is no less than 5.70.

With `CCOC(=O)N1CCn2c(C#N)ccc2C12CCN(C(=O)c1ccc(OC(C)C)c(C)c1)CC2` [Compound 210], the pIC50 is 5.30 to 5.70.

As for `Cc1cc(C(=O)N2CCC3(CC2)c2ccc(C(F)(F)C(F)(F)F)n2CCN3C)ccc1OC(C)C` [Compound 211], the pIC50 is no less than 5.70.

Regarding `CCCCOc1cc(C(=O)N2CCC3(CC2)c2ccc(C(F)(F)F)n2CCN3C)ccc1OC` [Compound 212], the pIC50 was no less than 5.70.

As for `COc1cc(C(=O)N2CCC3(CC2)c2ccc(C(F)(F)F)n2CCN3C)ccc1C(C)(C)O` [Compound 213], the negative-log IC50 (pIC50) was no less than 5.70.

For `CN1CCn2c(C(=O)C(F)(F)F)ccc2C12CCN(C(=O)c1ccc(COc3ccccc3)cc1)CC2` [Compound 214], the negative logarithm of the IC50 (pIC50) is no less than 5.70.

For `Cc1cc(C(=O)N2CCC3(CC2)c2c(F)cc(C(F)(F)F)n2CCN3C)ccc1S(=O)(=O)C(C)C` [Compound 215], the pIC50 was no less than 5.70.

On to `Cc1cc(C(=O)N2CCC3(CC2)c2ccc(C(=O)C(F)(F)F)n2CCN3C)ccc1-c1ccc(C#N)nc1` [Compound 216], for which the pIC50 is no less than 5.70.

`Cc1cc(C(=O)N2CCC3(CC2)c2c(F)cc(C(F)(F)F)n2CCN3C)ccc1OCC(C)(C)O` [Compound 217]: the pIC50 is no less than 5.70.

As for `CC1(C)Cn2c(C(=O)C(F)(F)F)ccc2C2(CCN(C(=O)c3ccc(-c4ccccc4)c(O)c3)CC2)N1` [Compound 218], the pIC50 was less than 5.30.

On to `CC(=O)c1ccc2n1CCN(C)C21CCN(C(=O)c2ccc(OCCC(C)C)cc2)CC1` [Compound 219], for which the pIC50 is no less than 5.70.

`CC(C)Oc1ccc(C(=O)N2CCC3(CC2)c2ccc(Cl)n2CCN3C)cc1C#N` [Compound 220]: the pIC50 was 5.30 to 5.70.

As for `CC(C)c1ccc(C(=O)N2CCC3(CC2)c2ccc(Cl)n2CCN3C)cc1` [Compound 221], the negative-log IC50 (pIC50) is less than 5.30.

For the compound `Cc1cc(C(=O)N2CCC3(CC2)NC(C)Cn2c(C(F)(F)F)ccc23)ccc1OC(C)C` (stereo not shown) [Compound 222], the negative-log IC50 (pIC50) is no less than 5.70.

On to `COc1ccc(C(=O)N2CCC3(CC2)c2ccc(C(=O)C(F)(F)F)n2C(C)(C)CN3C)cc1C` [Compound 223], for which the pIC50 is 5.30 to 5.70.

On to `CCCc1ccc(C(=O)N2CCC3(CC2)c2ccc(Cl)n2CCN3C)cc1` [Compound 224], for which the pIC50 was less than 5.30.

Consider `CC(=O)c1ccc2n1C(C)(C)CN(C)C21CCN(C(=O)c2ccc(C(C)(C)O)c(F)c2)CC1` [Compound 225], for which the pIC50 is less than 5.30.

Turning to `CN1CCn2c(ccc2C(F)(F)C(F)(F)F)C12CCN(C(=O)c1ccc(CC(C)(C)O)c(F)c1)CC2` [Compound 226], the negative-log IC50 (pIC50) was no less than 5.70.

With `COc1cc(C(=O)N2CCC3(CC2)c2ccc(C(F)(F)F)n2CCN3C(=O)N(C)C)ccc1OC(C)C` [Compound 227], the pIC50 is less than 5.30.

Turning to `CN1CCn2c(C(F)(F)F)cc(Cl)c2C12CCN(C(=O)c1ccc(C3(O)CCC3)cc1)CC2` [Compound 228], the negative-log IC50 (pIC50) was no less than 5.70.

In the case of `CCCOc1cc(C(=O)N2CCC3(CC2)c2ccc(Cl)n2CCN3C)ccc1OC` [Compound 229], the negative logarithm of the IC50 (pIC50) is 5.30 to 5.70.

`COc1cc(C(=O)N2CCC3(CC2)c2ccc(C(C)=O)n2CCN3C)ccc1OCC(C)C` [Compound 230]: the pIC50 was no less than 5.70.

For `Cc1cc(C(=O)N2CCC3(CC2)c2cc(C(=O)C(F)(F)F)cn2C(C)(C)CN3C)ccc1OC(C)C` [Compound 231], the pIC50 is less than 5.30.

Regarding `CC(C)Oc1ccc(C(=O)N2CCC3(CC2)NC(C)(C)Cn2c(C(=O)C(F)(F)F)ccc23)cc1F` [Compound 232], the pIC50 was no less than 5.70.

Consider `CC(C)Oc1ccc(C(=O)N2CCC3(CC2)c2ccc(C(=O)C(F)(F)F)n2CCN3C)cc1` [Compound 233], for which the negative-log IC50 (pIC50) was no less than 5.70.

As to `COc1cc(C(=O)N2CCC3(CC2)c2ccc(Cl)n2CCN3C)ccc1OC(C)C` [Compound 234], the negative logarithm of the IC50 (pIC50) was less than 5.30.

Turning to `Cc1cc(C(=O)N2CCC3(CC2)NCC(C)n2c(C(=O)C(F)(F)F)ccc23)ccc1C(C)(C)O` (stereo not shown) [Compound 235], the negative-log IC50 (pIC50) is no less than 5.70.

Turning to `Cc1cc(C(=O)N2CCC3(CC2)c2ccc(C(=O)C(F)(F)F)n2CCN3C)ccc1-c1cccc(Cl)c1` [Compound 236], the pIC50 was no less than 5.70.

For the compound `CN1CCn2c(C(=O)C(F)(F)F)ccc2C12CCN(C(=O)c1ccc(COCCC(F)(F)F)cc1)CC2` [Compound 237], the pIC50 is no less than 5.70.

With `Cc1cc(C(=O)N2CCC3(CC2)c2ccc(C(=O)C(F)(F)F)n2CCN3C)cc(C)c1O` [Compound 238], the pIC50 is no less than 5.70.

With `COc1ccc(C(=O)N2CCC3(CC2)c2cc(C(=O)C(F)(F)F)cn2C(C)(C)CN3C)cc1C` [Compound 239], the negative logarithm of the IC50 (pIC50) was less than 5.30.

For `COc1ccc(C(=O)N2CCC3(CC2)c2ccc(C(=O)C(F)(F)F)n2C(C)CN3C)cc1C(F)(F)F` (stereo not shown) [Compound 240], the pIC50 is no less than 5.70.

Consider `CCCCOc1cc(C(=O)N2CCC3(CC2)NCCn2c(C(F)(F)F)ccc23)ccc1OC` [Compound 241], for which the negative-log IC50 (pIC50) was less than 5.30.

For the compound `CN1CCn2c(C(F)(F)F)cc(F)c2C12CCN(C(=O)c1ccc(C3(O)CCC3)cc1)CC2` [Compound 242], the negative logarithm of the IC50 (pIC50) is no less than 5.70.

Regarding `CC(C)Oc1ccc(C(=O)N2CCC3(CC2)c2ccc(C(=O)C(C)(C)C)n2CCN3C)cc1Cl` [Compound 243], the negative-log IC50 (pIC50) was no less than 5.70.

For the compound `CN1CCn2c(C(F)(F)F)ccc2[C@]12CCN(C(=O)c1ccc(S(=O)(=O)NC3CC3)cc1)C[C@H]2F` [Compound 244], the negative-log IC50 (pIC50) is no less than 5.70.

As to `COCCOc1ccc(C(=O)N2CCC3(CC2)c2ccc(C(F)(F)C(F)(F)F)n2CCN3C)cc1OC` [Compound 245], the negative logarithm of the IC50 (pIC50) is no less than 5.70.

For the compound `CC(=O)c1ccc2n1CCN(C)C21CCN(C(=O)c2ccc(S(=O)(=O)C(C)C)c(C)c2)CC1` [Compound 246], the pIC50 was less than 5.30.

In the case of `COc1cc(C(=O)N2CCC3(CC2)N[C@H]2CCCC[C@H]2n2cccc23)ccc1OCCC(C)C` [Compound 247], the pIC50 is no less than 5.70.

Regarding `Cc1cc(C(F)F)n2ncc(C(=O)N3CCC4(CC3)c3ccc(C(=O)C(C)(C)C)n3CCN4C)c2n1` [Compound 248], the negative-log IC50 (pIC50) was no less than 5.70.

In the case of `Cc1cc(C(=O)N2CCC3(CC2)c2c(F)cc(C(F)(F)F)n2CCN3C)ccc1OCCCO` [Compound 249], the negative-log IC50 (pIC50) is no less than 5.70.

`CC(C)Oc1ccc(C(=O)N2CCC3(CC2)c2ccc(Cl)n2CCN3C)cc1Cl` [Compound 250]: the negative-log IC50 (pIC50) is no less than 5.70.

Turning to `CN1CCn2c(C(=O)C(C)(C)C)ccc2C12CCN(C(=O)c1ccc(C(C)(C)O)c(F)c1)CC2` [Compound 251], the pIC50 was no less than 5.70.

Consider `COc1ccc(C(=O)N2CCC3(CC2)c2ccc(C(=O)C(F)(F)F)n2C[C@@H](C)N3C)cc1Cl` [Compound 252], for which the pIC50 was less than 5.30.
